Data set [1] has as its target T1, human organic anion transporter-3 (hOAT3) (Homo sapiens, UniProt Q8TCC7).
T1 sequence (Q8TCC7 1-542): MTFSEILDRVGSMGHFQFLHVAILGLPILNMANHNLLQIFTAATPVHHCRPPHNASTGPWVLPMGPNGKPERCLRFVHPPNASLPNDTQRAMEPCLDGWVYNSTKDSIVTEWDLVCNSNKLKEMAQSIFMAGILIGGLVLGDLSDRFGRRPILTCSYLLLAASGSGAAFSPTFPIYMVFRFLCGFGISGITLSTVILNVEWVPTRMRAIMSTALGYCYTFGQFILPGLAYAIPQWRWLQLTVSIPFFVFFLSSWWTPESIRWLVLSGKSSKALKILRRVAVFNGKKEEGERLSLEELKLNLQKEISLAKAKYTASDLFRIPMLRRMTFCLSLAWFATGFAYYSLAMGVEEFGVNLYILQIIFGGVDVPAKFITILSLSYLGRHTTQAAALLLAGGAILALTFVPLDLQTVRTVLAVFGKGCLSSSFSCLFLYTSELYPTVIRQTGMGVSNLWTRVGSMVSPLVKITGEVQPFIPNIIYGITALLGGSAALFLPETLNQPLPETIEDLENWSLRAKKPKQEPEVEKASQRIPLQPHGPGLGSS
Description: cis-inhibition of [3H]-estrone sulfate uptake in hOAT3-expressing HEK293 cells. In kind it is cell-based.

Substrate in data set [2]: C[C@]12CC[C@@H]3c4ccc(OS(=O)(=O)O)cc4CC[C@H]3[C@@H]1CCC2=O
Description: cells, lysate or membranes.

Consider two molecules from PMC7864676 (Journal of pharmacological sciences, 2018).

The term Ki denotes a dissociation constant, usually derived from enzyme kinetics or from competition with a known ligand. Lower therefore signals tighter binding. The term Km denotes the substrate concentration at which the rate is half of its maximum.

`C[C@@H]1C[C@H]2[C@@H]3CCC4=CC(=O)C=C[C@]4(C)[C@@]3(F)[C@@H](O)C[C@]2(C)[C@@]1(O)C(=O)CO` [dexamethasone] yielded a Ki in data set [1] of 47.1 µM.

B1: human organic anion transporter-3 (hOAT3) (Homo sapiens) (protein)
chain: MTFSEILDRVGSMGHFQFLHVAILGLPILNMANHNLLQIFTAATPVHHCRPPHNASTGPWVLPMGPNGKPERCLRFVHPPNASLPNDTQRAMEPCLDGWVYNSTKDSIVTEWDLVCNSNKLKEMAQSIFMAGILIGGLVLGDLSDRFGRRPILTCSYLLLAASGSGAAFSPTFPIYMVFRFLCGFGISGITLSTVILNVEWVPTRMRAIMSTALGYCYTFGQFILPGLAYAIPQWRWLQLTVSIPFFVFFLSSWWTPESIRWLVLSGKSSKALKILRRVAVFNGKKEEGERLSLEELKLNLQKEISLAKAKYTASDLFRIPMLRRMTFCLSLAWFATGFAYYSLAMGVEEFGVNLYILQIIFGGVDVPAKFITILSLSYLGRHTTQAAALLLAGGAILALTFVPLDLQTVRTVLAVFGKGCLSSSFSCLFLYTSELYPTVIRQTGMGVSNLWTRVGSMVSPLVKITGEVQPFIPNIIYGITALLGGSAALFLPETLNQPLPETIEDLENWSLRAKKPKQEPEVEKASQRIPLQPHGPGLGSS
Consider B1, for which, in data set [2], the Km is given as 5.07 ± 0.49 µM.
